Values quoted from earlier work as cited in patent publication US9314021B2, “Formulations containing insect repellent compounds” (E I DU PONT DE NEMOURS AND COMPANY, priority 2004, dated 2016).

Test system: ant species Monomorium destructor
Conditions: pure undiluted compound; after 25 seconds of exposure; during feeding

## CC1COC(=O)C2C(C)CCC12 (stereo not shown) [dihydronepetalactone]
  ants ceased to feed: 50-60%
